Measured values as given in patent US9695155B2, “Herbicidal substituted pyrimidinyloxy benzene compounds” (E. I. DU PONT DE NEMOURS AND COMPANY, priority 2013, dated 2017).

Columns and labels:
wheat [1] = experiment: Test A preemergence; type: in vivo, Triticum aestivum; details: for Wheat plant response rating (0 to 100 scale): 125 g ai/ha; for Wheat plant response rating: 500 g ai/ha, 0 to 100 scale where 0 is no effect and 100 is complete control
Method in brief: (§1)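 Pre- and postemergence greenhouse screen. Soil: loam + sand. Spray carrier: solvent mixture, non-phytotoxic, with surfactant. Post timing at 1–2 leaves, height 2–10 cm. Readout: visual injury on a 0–100 scale roughly 10 days after application, untreated plants as reference.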

wheat [2] = experiment: Test A postemergence; type: in vivo, Triticum aestivum; details: 0 to 100 scale where 0 is no effect and 100 is complete control; for Wheat plant response rating: 125 g ai/ha; for Plant response rating, Wheat: 500 g ai/ha
Method in brief: as §1

velvetleaf [3] = experiment: Test A postemergence; type: in vivo, Abutilon theophrasti; details: 0 to 100 scale where 0 is no effect and 100 is complete control; for Velvetleaf plant response rating: 125 g ai/ha; for Plant response rating, Velvetleaf: 500 g ai/ha
Method in brief: as §1

giant foxtail [4] = experiment: Test A preemergence; type: in vivo, Setaria faberii; details: for Plant response rating, Foxtail, Giant / Foxtail, Giant plant response rating (0 to 100 scale): 125 g ai/ha; for Plant response rating, Foxtail, Giant / Foxtail, Giant plant response rating: 0 to 100 scale where 0 is no effect and 100 is complete control; for Foxtail, Giant plant response rating: 500 g ai/ha
Method in brief: as §1

rice = experiment: Test B flooded paddy test; type: in vivo, Oryza sativa; details: Flood, 250 g ai/ha; 0 to 100 scale where 0 is no effect and 100 is complete control
Method in brief: (§2)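 Compound added straight to paddy water, with pots kept flooded 3 cm above soil, on plants grown to the 2-leaf stage. Visual scoring 0-100 (100 = complete control) against untreated controls after 13 to 15 greenhouse days.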

velvetleaf [5] = experiment: Test A preemergence; type: in vivo, Abutilon theophrasti; details: for Velvetleaf plant response rating (0 to 100 scale): 125 g ai/ha; for Velvetleaf plant response rating: 500 g ai/ha, 0 to 100 scale where 0 is no effect and 100 is complete control
Method in brief: as §1

giant foxtail [6] = experiment: Test A postemergence; type: in vivo, Setaria faberii; details: 0 to 100 scale where 0 is no effect and 100 is complete control; for Foxtail, Giant plant response rating: 125 g ai/ha; for Plant response rating, Foxtail, Giant: 500 g ai/ha
Method in brief: as §1

barnyardgrass [7] = experiment: Test B flooded paddy test; type: in vivo, Echinochloa crus-galli; details: Flood, 250 g ai/ha; 0 to 100 scale where 0 is no effect and 100 is complete control
Method in brief: as §2

large (Lg) crabgrass [8] = experiment: Test A postemergence; type: in vivo, Digitaria sanguinalis; details: 0 to 100 scale where 0 is no effect and 100 is complete control; for Crabgrass, Large plant response rating: 125 g ai/ha; for Plant response rating, Crabgrass, Large: 500 g ai/ha
Method in brief: as §1

barnyardgrass [9] = experiment: Test A preemergence; type: in vivo, Echinochloa crus-galli; details: for Plant response rating, Barnyardgrass / Barnyardgrass plant response rating (0 to 100 scale, 0 is no effect, 100 is complete control): 125 g ai/ha; for Plant response rating, Barnyardgrass / Barnyardgrass plant response rating: 0 to 100 scale where 0 is no effect and 100 is complete control; for Barnyardgrass plant response rating: 500 g ai/ha
Method in brief: as §1

large (Lg) crabgrass [10] = experiment: Test A preemergence; type: in vivo, Digitaria sanguinalis; details: for Plant response rating, Crabgrass, Large / Crabgrass, Large plant response rating (0 to 100 scale): 125 g ai/ha; for Plant response rating, Crabgrass, Large / Crabgrass, Large plant response rating: 0 to 100 scale where 0 is no effect and 100 is complete control; for Crabgrass, Large plant response rating: 500 g ai/ha
Method in brief: as §1

corn [11] = experiment: Test A preemergence; type: in vivo, Zea mays; details: for Plant response rating, Corn / Corn plant response rating (0 to 100 scale): 125 g ai/ha; for Plant response rating, Corn / Corn plant response rating: 0 to 100 scale where 0 is no effect and 100 is complete control; for Corn plant response rating: 500 g ai/ha
Method in brief: as §1

corn [12] = experiment: Test A postemergence; type: in vivo, Zea mays; details: 0 to 100 scale where 0 is no effect and 100 is complete control; for Corn plant response rating: 125 g ai/ha; for Plant response rating, Corn: 500 g ai/ha
Method in brief: as §1

morningglory [13] = experiment: Test A preemergence; type: in vivo, Ipomoea spp.; details: for Morningglory plant response rating (0 to 100 scale): 125 g ai/ha; for Morningglory plant response rating: 500 g ai/ha, 0 to 100 scale where 0 is no effect and 100 is complete control
Method in brief: as §1

sedge, umbrella = experiment: Test B flooded paddy test; type: in vivo, Cyperus difformis; details: Flood, 250 g ai/ha; 0 to 100 scale where 0 is no effect and 100 is complete control
Method in brief: as §2

pigweed [14] = experiment: Test A postemergence; type: in vivo, Amaranthus retroflexus; details: 0 to 100 scale where 0 is no effect and 100 is complete control; for Pigweed plant response rating: 125 g ai/ha; for Plant response rating, Pigweed: 500 g ai/ha
Method in brief: as §1

morningglory [15] = experiment: Test A postemergence; type: in vivo, Ipomoea spp.; details: 0 to 100 scale where 0 is no effect and 100 is complete control; for Morningglory plant response rating: 125 g ai/ha; for Plant response rating, Morningglory: 500 g ai/ha
Method in brief: as §1

pigweed [16] = experiment: Test A preemergence; type: in vivo, Amaranthus retroflexus; details: for Pigweed plant response rating (0 to 100 scale): 125 g ai/ha; for Pigweed plant response rating: 500 g ai/ha, 0 to 100 scale where 0 is no effect and 100 is complete control
Method in brief: as §1

Heteranthera limosa = experiment: Test B flooded paddy test; type: in vivo; details: Flood, 250 g ai/ha; 0 to 100 scale where 0 is no effect and 100 is complete control
Method in brief: as §2

barnyardgrass [17] = experiment: Test A postemergence; type: in vivo, Echinochloa crus-galli; details: 0 to 100 scale where 0 is no effect and 100 is complete control; for Barnyardgrass plant response rating: 125 g ai/ha; for Plant response rating, Barnyardgrass: 500 g ai/ha
Method in brief: as §1

Structure (SMILES)	Wheat plant response rating (0 to 100 scale) (wheat [1])	Wheat plant response rating (wheat [1])	Wheat plant response rating (wheat [2])	Plant response rating, Wheat (wheat [2])	Velvetleaf plant response rating (velvetleaf [3])	Plant response rating, Velvetleaf (velvetleaf [3])	Foxtail, Giant plant response rating (giant foxtail [4])	Plant response rating, Rice (rice)	Velvetleaf plant response rating (0 to 100 scale) (velvetleaf [5])	Velvetleaf plant response rating (velvetleaf [5])	Foxtail, Giant plant response rating (giant foxtail [6])	Plant response rating, Foxtail, Giant (giant foxtail [6])	Plant response rating, Barnyardgrass (barnyardgrass [7])	Crabgrass, Large plant response rating (large (Lg) crabgrass [8])	Plant response rating, Crabgrass, Large (large (Lg) crabgrass [8])	Barnyardgrass plant response rating (barnyardgrass [9])	Crabgrass, Large plant response rating (large (Lg) crabgrass [10])	Corn plant response rating (corn [11])	Corn plant response rating (corn [12])	Plant response rating, Corn (corn [12])	also measured
N#Cc1cnc(Oc2cccc(C=O)c2-n2cc(Br)cn2)nc1 [Compound 174]	0	0	0	0	0	0	0	0	0	0	0	0	0	0	0	0	0	0	0	0	Plant response rating, Foxtail, Giant (giant foxtail [4]): 0; Plant response rating, Barnyardgrass (barnyardgrass [9]): 0; Plant response rating, Crabgrass, Large (large (Lg) crabgrass [10]): 0; Plant response rating, Corn (corn [11]): 0; Morningglory plant response rating (0 to 100 scale) (morningglory [13]): 0; Morningglory plant response rating (morningglory [13]): 0; Plant response rating, Sedge, Umbrella (sedge, umbrella): 0; Pigweed plant response rating (pigweed [14]): 0; Plant response rating, Pigweed (pigweed [14]): 0; Morningglory plant response rating (morningglory [15]): 0; Plant response rating, Morningglory (morningglory [15]): 0; Pigweed plant response rating (0 to 100 scale) (pigweed [16]): 0; Pigweed plant response rating (pigweed [16]): 0; Plant response rating, Ducksalad (Heteranthera limosa): 0; Barnyardgrass plant response rating (barnyardgrass [17]): 0; Plant response rating, Barnyardgrass (barnyardgrass [17]): 0
N#Cc1cnc(Oc2cccc(C(F)F)c2-n2cc(Br)cn2)nc1 [Compound 175]	0	0	0	0	0	0	0	0	0	0	0	0	0	0	0	0	0	0	0	0	Plant response rating, Foxtail, Giant (giant foxtail [4]): 0; Plant response rating, Barnyardgrass (barnyardgrass [9]): 0; Plant response rating, Crabgrass, Large (large (Lg) crabgrass [10]): 0; Plant response rating, Corn (corn [11]): 0; Morningglory plant response rating (0 to 100 scale) (morningglory [13]): 0; Morningglory plant response rating (morningglory [13]): 0; Plant response rating, Sedge, Umbrella (sedge, umbrella): 0; Pigweed plant response rating (pigweed [14]): 0; Plant response rating, Pigweed (pigweed [14]): 0; Morningglory plant response rating (morningglory [15]): 0; Plant response rating, Morningglory (morningglory [15]): 0; Pigweed plant response rating (0 to 100 scale) (pigweed [16]): 0; Pigweed plant response rating (pigweed [16]): 0; Plant response rating, Ducksalad (Heteranthera limosa): 0; Barnyardgrass plant response rating (barnyardgrass [17]): 0; Plant response rating, Barnyardgrass (barnyardgrass [17]): 0
O=Cc1cccc(Oc2ncc(Br)cn2)c1-n1cc(I)cn1 [Compound 183]	0	0	0	0	20	30	0	0	0	0	0	0	0	0	0	0	0	0	0	0	Foxtail, Giant plant response rating (0 to 100 scale) (giant foxtail [4]): 0; Barnyardgrass plant response rating (0 to 100 scale, 0 is no effect, 100 is complete control) (barnyardgrass [9]): 0; Crabgrass, Large plant response rating (0 to 100 scale) (large (Lg) crabgrass [10]): 0; Corn plant response rating (0 to 100 scale) (corn [11]): 0; Morningglory plant response rating (0 to 100 scale) (morningglory [13]): 0; Morningglory plant response rating (morningglory [13]): 0; Plant response rating, Sedge, Umbrella (sedge, umbrella): 0; Pigweed plant response rating (pigweed [14]): 20; Plant response rating, Pigweed (pigweed [14]): 50; Morningglory plant response rating (morningglory [15]): 0; Plant response rating, Morningglory (morningglory [15]): 0; Pigweed plant response rating (0 to 100 scale) (pigweed [16]): 20; Pigweed plant response rating (pigweed [16]): 90; Plant response rating, Ducksalad (Heteranthera limosa): 0; Barnyardgrass plant response rating (barnyardgrass [17]): 0; Plant response rating, Barnyardgrass (barnyardgrass [17]): 0
CC#Cc1cnn(-c2ccccc2Oc2ncc(Cl)cn2)c1 [Compound 189]	0	10	20	50	90	100	100	0	60	80	40	80	0	30	80	90	100	0	10	40	Foxtail, Giant plant response rating (0 to 100 scale) (giant foxtail [4]): 70; Barnyardgrass plant response rating (0 to 100 scale, 0 is no effect, 100 is complete control) (barnyardgrass [9]): 20; Crabgrass, Large plant response rating (0 to 100 scale) (large (Lg) crabgrass [10]): 90; Corn plant response rating (0 to 100 scale) (corn [11]): 0; Morningglory plant response rating (0 to 100 scale) (morningglory [13]): 0; Morningglory plant response rating (morningglory [13]): 30; Plant response rating, Sedge, Umbrella (sedge, umbrella): 70; Pigweed plant response rating (pigweed [14]): 100; Plant response rating, Pigweed (pigweed [14]): 100; Morningglory plant response rating (morningglory [15]): 50; Plant response rating, Morningglory (morningglory [15]): 100; Pigweed plant response rating (0 to 100 scale) (pigweed [16]): 100; Pigweed plant response rating (pigweed [16]): 100; Plant response rating, Ducksalad (Heteranthera limosa): 70; Barnyardgrass plant response rating (barnyardgrass [17]): 10; Plant response rating, Barnyardgrass (barnyardgrass [17]): 90
Clc1cnc(Oc2cccc(-c3ccccc3)c2-n2cc(Br)cn2)nc1 [Compound 195]	0	0	0	0	50	100	80	20	0	20	10	50	0	40	60	0	70	0	0	20	Foxtail, Giant plant response rating (0 to 100 scale) (giant foxtail [4]): 10; Barnyardgrass plant response rating (0 to 100 scale, 0 is no effect, 100 is complete control) (barnyardgrass [9]): 0; Corn plant response rating (0 to 100 scale) (corn [11]): 0; Morningglory plant response rating (0 to 100 scale) (morningglory [13]): 0; Morningglory plant response rating (morningglory [13]): 10; Plant response rating, Sedge, Umbrella (sedge, umbrella): 30; Pigweed plant response rating (pigweed [14]): 60; Plant response rating, Pigweed (pigweed [14]): 80; Morningglory plant response rating (morningglory [15]): 30; Plant response rating, Morningglory (morningglory [15]): 70; Pigweed plant response rating (0 to 100 scale) (pigweed [16]): 0; Pigweed plant response rating (pigweed [16]): 40; Plant response rating, Ducksalad (Heteranthera limosa): 20; Barnyardgrass plant response rating (barnyardgrass [17]): 0; Plant response rating, Barnyardgrass (barnyardgrass [17]): 20
